In test [1] the test system is MEF PARP-2 (-/-) KO cells. The experiment in a line: Cell viability assay in MEF PARP-2 KO-/- cells. Type of test: cell-based, mouse. The note with it: Mus musculus, NA = Not applicable, no cell death observed. On the procedure: Genetically engineered PARP-1 and PARP-2 double knockout mouse embryonic fibroblast (MEF) were used for cell viability studies with wildtype control.
Cell viability assays were carried out using four cell lines including OVCAR8, MEF wt, MEF PARP-1 (−/−) KO, and MEF PARP-2 (−/−) KO as described in Makvandi cited above. Briefly, cells were seeded in black wall clear bottom 96-well plates at concentrations of 1,000 cells/well. […] Plates were read on an Enspire multimode plate reader (Perkin Elmer). Data was normalized to percent survival at each concentration evaluated by diving the luminescent signal in treated wells vs. the average of vehicle controls. Experiments were repeated three times and all compounds were assayed during each experiment.
This isogenic model was selected due to the highly conserved nature of the PARP catalytic domain, all-owing investigation in enzyme specificity.
The cell cytotoxicity profile of these selected compounds in MEF PARP-2 KO−/− cell lines was then analyzed as described above.

A further test addresses PARP-1 (Homo sapiens, UniProt P09874). The test can be described thus: PARP-1 radioligand binding in live OVCAR8 cells ([125I]KX1 competition). Particulars: for enzyme affinity in contrast to respective boc-protected analogue: free-amine derivatives; for IC50: radioligand binding in OVCAR8 cells. The method, then: Cells were cultured using standard techniques at 37° C. with 5% CO2 and 15% 02. […] Genetically engineered PARP-1 and PARP-2 double knockout mouse embryonic fibroblast (MEF) were used for cell viability studies with wildtype control. All cells were cultured in RPMI 1640 with 10% FBS and 1% penicillin/streptomycin.
The affinity of each compound for the PARP-1 enzyme was evaluated using a radioligand binding method described in Makvandi, A radiotracer strategy to quantify PARP-1 expression in vivo provides a biomarker that can enable patient selection for PARP inhibitor therapy. Cancer Research 2016. Briefly, OVCAR8 ovarian cancer cells were seeded in 96-well Stripwell plates at a density of 40,000 cells/well 24 hrs prior to the study. On the day of study, compounds were diluted in RPMI to concentrations of 100 μM-0.064 nM. […] Reactions were allowed to equilibrate for 1 hr and were then washed with 200 μL of PBS. Wells were separated and counted on an automatic Wizard gamma counter (Perkin Elmer, Waltham Mass.). […] Experiments were repeated three times with adjusting dose concentrations to increase accuracy of IC50 values.
Compounds 10-17 were evaluated for PARP-1 inhibition using a radioligand binding assay protocol with BRCA1 methylated ovarian cancer cells (OVCAR8) as described above. See, Table 3. […] Compared to 1a, oxaazaspiro analogue 1b performed slightly better with scaffold 10b displaying a PARP-1 binding value of 24.9 nM.

SMILES strings stand for the structures.

PARP-1, sequence (P09874 whole entry): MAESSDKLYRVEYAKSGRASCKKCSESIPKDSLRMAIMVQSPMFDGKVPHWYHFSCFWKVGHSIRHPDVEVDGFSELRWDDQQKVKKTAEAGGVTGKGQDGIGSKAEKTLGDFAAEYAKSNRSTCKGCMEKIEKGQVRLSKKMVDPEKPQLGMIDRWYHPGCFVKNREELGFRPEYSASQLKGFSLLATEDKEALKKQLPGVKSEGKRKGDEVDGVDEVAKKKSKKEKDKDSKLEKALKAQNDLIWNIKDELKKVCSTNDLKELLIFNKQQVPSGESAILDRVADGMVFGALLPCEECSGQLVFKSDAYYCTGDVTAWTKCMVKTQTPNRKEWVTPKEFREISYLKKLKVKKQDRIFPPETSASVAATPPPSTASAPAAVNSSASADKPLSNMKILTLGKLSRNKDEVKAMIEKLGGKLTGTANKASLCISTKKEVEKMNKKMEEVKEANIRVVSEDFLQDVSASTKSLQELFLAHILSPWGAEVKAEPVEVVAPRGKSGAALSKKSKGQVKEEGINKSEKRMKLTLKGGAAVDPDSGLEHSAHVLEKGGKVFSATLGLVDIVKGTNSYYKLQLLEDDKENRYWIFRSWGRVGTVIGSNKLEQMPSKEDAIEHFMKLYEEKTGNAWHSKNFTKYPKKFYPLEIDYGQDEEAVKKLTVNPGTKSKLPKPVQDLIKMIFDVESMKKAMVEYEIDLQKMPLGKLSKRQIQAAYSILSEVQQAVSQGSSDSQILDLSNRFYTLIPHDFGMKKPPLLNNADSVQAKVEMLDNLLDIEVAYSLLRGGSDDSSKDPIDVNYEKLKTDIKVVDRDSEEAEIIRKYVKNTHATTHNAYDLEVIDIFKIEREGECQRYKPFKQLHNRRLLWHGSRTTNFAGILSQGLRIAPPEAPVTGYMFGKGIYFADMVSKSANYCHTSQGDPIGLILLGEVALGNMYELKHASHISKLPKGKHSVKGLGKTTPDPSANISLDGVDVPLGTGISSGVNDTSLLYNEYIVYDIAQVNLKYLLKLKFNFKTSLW

On to `O=C(c1cc(Cc2n[nH]c(=O)c3ccccc23)ccc1F)N1CCC2(CCNC2)C1` (centres unmarked) [Compound 15c, 4-(4-Fluoro-3-(2,7-diazaspiro[4.4]nonane-2-carbonyl)benzyl)phthalazin-1(2H)-one], for which the EC50 was 512 µM in test [1] and 1120 nM at PARP-1. The “enzyme affinity in contrast to respective boc-protected analogue” value at PARP-1 is on record as “slight increase in enzyme affinity”.
Regarding `O=C(c1cc(Cc2n[nH]c(=O)c3ccccc23)ccc1F)N1CCC2(CCNCC2)CC1` [Compound 17c, 4-(4-Fluoro-3-(3,9-diazaspiro[5.5]undecane-3-carbonyl)benzyl)phthalazin-1(2H)-one], the EC50 in test [1] was 59.7 µM; at PARP-1 it was 234 nM. Moreover, the “enzyme affinity in contrast to respective boc-protected analogue” value at PARP-1 was “slight increase in enzyme affinity”.
In the case of `O=C(c1cc(Cc2n[nH]c(=O)c3ccccc23)ccc1F)N1CCC(c2ccc(F)cc2)CC1` [Compound 36, 4-(4-fluoro-3-(4-(4-fluorophenyl)piperidine-1-carbonyl)benzyl)phthalazin-1(2H)-one], on PARP-1, the EC50 was 1.3 nM.
As for `O=C(c1cc(Cc2n[nH]c(=O)c3ccccc23)ccc1F)N1CCC2(CCN(C(=O)C3CC3)C2)C1` (centres unmarked) [Compound 15d, 4-(3-(7-(Cyclopropanecarbonyl)-2,7-dizaspiro[4.4]nonane-2-carbonyl)-4-fluorobenzyl)phthalazin-1(2H)-one], the EC50 is 70.9 µM in test [1] and 2590 nM at PARP-1.
In the case of `O=C(c1cc(Cc2n[nH]c(=O)c3ccccc23)ccc1F)N1CCC12CNC2` [Compound 11c, 4-(4-Fluoro-3-(1,6-diazaspiro[3.3]heptane-1-carbonyl)benzyl)phthalazin-1(2H)-one], the “enzyme affinity in contrast to respective boc-protected analogue” value on PARP-1 is on record as “slight increase in enzyme affinity”.
On to `O=C(c1cc(Cc2n[nH]c(=O)c3ccccc23)ccc1F)N1CCC2(CNC2)C1` [Compound 14c, 4-(4-Fluoro-3-(2,6-diazaspiro[3.4]octane-6-carbonyl)benzyl)phthalazin-1(2H)-one], for which it took 1240 nM to reach a half-maximal effect at PARP-1 (EC50).
`CC(C)(C)OC(=O)N1CCC2(C1)CN(C(=O)c1cc(Cc3n[nH]c(=O)c4ccccc34)ccc1F)C2` [Compound 14b]: the IC50 on PARP-1 was determined as 1190 nM.
`O=C(c1cc(Cc2n[nH]c(=O)c3ccccc23)ccc1F)N1CC2(C1)CN(C(=O)C1CC1)C2` [Compound 10e, 4-(3-(6-(Cyclopropanecarbonyl)-2,6-diazaspiro[3.3]heptane-2-carbonyl)-4-fluorobenzyl)phthalazin-1(2H)-one]: in test [1], a half-maximal effect (EC50) was put at 59.8 µM. On PARP-1, this compound gave an EC50 of 12.6 nM and an IC50 of 12.6 nM.
The compound `O=C(c1cc(Cc2n[nH]c(=O)c3ccccc23)ccc1F)N1CC2(CNC2)C1` [Compound 10d, 4-(4-Fluoro-3-(2,6-diazaspiro[3.3]heptane-2-carbonyl)benzyl)phthalazin-1(2H)-one] showed an EC50 at PARP-1 of 2390 nM.
At PARP-1, `COC1CC(NC(=O)c2cc(Cc3n[nH]c(=O)c4ccccc34)ccc2F)C1` (centres unmarked) [Compound 18] returned a concentration for a half-maximal effect (EC50) of 74.1 nM.
The compound `O=C(c1cc(Cc2n[nH]c(=O)c3ccccc23)ccc1F)N1CCC2(CCNCC2)C1` [Compound 16c, 4-(4-Fluoro-3-(2,8-diazaspiro[4.5]decane-2-carbonyl)benzyl)phthalazin-1(2H)-one] had an EC50 at PARP-1 of 3880 nM.
As for `O=C(c1cc(Cc2n[nH]c(=O)c3ccccc23)ccc1F)N1CC2(CC(c3ccc(F)cc3)C2)C1` [Compound 39, 4-(4-fluoro-3-(6-(4-fluorophenyl)-2-azaspiro[3.3]heptane-2-carbonyl)benzyl)phthalazin-1(2H)-one], the EC50 on PARP-1 was 2.8 nM.
On to `O=C(c1cc(Cc2n[nH]c(=O)c3ccccc23)ccc1F)N1CC2(CC(OCCF)C2)C1` [Compound 37B, 4-(4-fluoro-3-(6-(2-fluoroethoxy)-2-azaspiro[3.3]heptane-2-carbonyl)benzyl)phthalazin-1(2H)-one], for which, at PARP-1, a half-maximal effect (EC50) was put at 10.7 ± 1.1 nM.

These data come from US11542282B2, “Low affinity poly(AD-ribose) polymerase 1 dependent cytotoxic agents” (THE TRUSTEES OF THE UNIVERSITY OF PENNSYLVANIA, priority 2018, dated 2023).
